Data as given in PubChem BioAssay (NCI).
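How tested: cells in 96-well plates exposed to compound for 48 hours at five concentrations. At the GI50, growth is halved. TGI: total growth inhibition.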

What was measured:
Assay in all cases: inhibition of tumour cell growth, NCI panel, 48 h
786-0 renal = system: 786-0 renal
A498 renal = system: A498 renal
A549 NSCLC = system: A549 NSCLC
ACHN renal = system: ACHN renal
BT-549 breast = system: BT-549 breast
CAKI-1 renal = system: CAKI-1 renal
CCRF-CEM leukemia = system: CCRF-CEM leukemia
COLO 205 colon = system: COLO 205 colon
DU-145 prostate = system: DU-145 prostate
EKVX NSCLC = system: EKVX NSCLC
HCC-2998 colon = system: HCC-2998 colon
HCT-116 colon = system: HCT-116 colon
HCT-15 colon = system: HCT-15 colon
HL-60(TB) leukemia = system: HL-60(TB) leukemia
HOP-62 NSCLC = system: HOP-62 NSCLC
HOP-92 NSCLC = system: HOP-92 NSCLC
HS 578T breast = system: HS 578T breast
HT29 colon = system: HT29 colon
IGROV1 ovarian = system: IGROV1 ovarian
K-562 leukemia = system: K-562 leukemia
KM12 colon = system: KM12 colon
LOX IMVI melanoma = system: LOX IMVI melanoma
M14 melanoma = system: M14 melanoma
MALME-3M melanoma = system: MALME-3M melanoma
MCF7 breast = system: MCF7 breast
MDA-MB-231 breast = system: MDA-MB-231 breast
MDA-MB-435 = system: MDA-MB-435
MOLT-4 leukemia = system: MOLT-4 leukemia
NCI-H226 lung = system: NCI-H226 lung
NCI-H23 lung = system: NCI-H23 lung
NCI-H460 lung = system: NCI-H460 lung
NCI-H522 lung = system: NCI-H522 lung
NCI/ADR-RES ovarian = system: NCI/ADR-RES ovarian
OVCAR-4 ovarian = system: OVCAR-4 ovarian
OVCAR-5 ovarian = system: OVCAR-5 ovarian
OVCAR-8 ovarian = system: OVCAR-8 ovarian
PC-3 prostate = system: PC-3 prostate
RPMI-8226 leukemia = system: RPMI-8226 leukemia
RXF 393 renal = system: RXF 393 renal
SF-268 CNS = system: SF-268 CNS
SF-295 CNS = system: SF-295 CNS
SF-539 CNS = system: SF-539 CNS
SK-MEL-2 melanoma = system: SK-MEL-2 melanoma
SK-MEL-28 melanoma = system: SK-MEL-28 melanoma
SK-MEL-5 melanoma = system: SK-MEL-5 melanoma
SK-OV-3 ovarian = system: SK-OV-3 ovarian
SN12C renal = system: SN12C renal
SNB-19 CNS = system: SNB-19 CNS
SNB-75 CNS = system: SNB-75 CNS
SR leukemia = system: SR leukemia
SW-620 colon = system: SW-620 colon
T-47D breast = system: T-47D breast
TK-10 renal = system: TK-10 renal
U251 CNS = system: U251 CNS
UACC-257 melanoma = system: UACC-257 melanoma
UACC-62 melanoma = system: UACC-62 melanoma
UO-31 renal = system: UO-31 renal

`Nn1c(=O)n(-c2cccc(C(F)(F)F)c2)c(=O)c2cc(-c3ccc(F)cc3F)ccc21` was tested, and the GI50 (786-0 renal) was 2140 nM, the TGI (786-0 renal) was 5260 nM and the GI50 (A498 renal) was 327 nM. It also gave a TGI (A498 renal) of 1300 nM, a GI50 (A549 NSCLC) of 2710 nM and a TGI (A549 NSCLC) of 12500 nM. For the same compound, the GI50 (ACHN renal) was 2400 nM, the TGI (ACHN renal) was 10300 nM and the GI50 (BT-549 breast) was 667 nM. For the same compound, the TGI (BT-549 breast) was 2140 nM, the GI50 (CAKI-1 renal) was 1500 nM and the TGI (CAKI-1 renal) was 5140 nM. For the same compound, the GI50 (CCRF-CEM leukemia) was 1140 nM, the TGI (CCRF-CEM leukemia) was 6850 nM and the GI50 (COLO 205 colon) was 1940 nM. It also gave a TGI (COLO 205 colon) of 3670 nM, a GI50 (DU-145 prostate) of 3060 nM and a TGI (DU-145 prostate) of 17700 nM. For the same compound, the GI50 (EKVX NSCLC) was 2480 nM, the TGI (EKVX NSCLC) was 8790 nM and the GI50 (HCC-2998 colon) was 2770 nM. For the same compound, the TGI (HCC-2998 colon) was 9960 nM, the GI50 (HCT-116 colon) was 841 nM and the TGI (HCT-116 colon) was 2290 nM. The GI50 (HCT-15 colon) was 649 nM, the TGI (HCT-15 colon) was 2690 nM and the GI50 (HL-60(TB) leukemia) was 1750 nM. For the same compound, the TGI (HL-60(TB) leukemia) was 8760 nM, the GI50 (HOP-62 NSCLC) was 1900 nM and the TGI (HOP-62 NSCLC) was 4600 nM. The GI50 (HOP-92 NSCLC) was 137 nM, the TGI (HOP-92 NSCLC) was 523 nM and the GI50 (HS 578T breast) was 1190 nM. The TGI (HS 578T breast) was 5430 nM, the GI50 (HT29 colon) was 3490 nM and the TGI (HT29 colon) was 13900 nM. The GI50 (IGROV1 ovarian) was 1830 nM, the TGI (IGROV1 ovarian) was 27700 nM and the GI50 (K-562 leukemia) was 949 nM. The TGI (K-562 leukemia) was 14800 nM, the GI50 (KM12 colon) was 2440 nM and the TGI (KM12 colon) was 6600 nM. It also gave a GI50 (LOX IMVI melanoma) of 1490 nM, a TGI (LOX IMVI melanoma) of 3130 nM and a GI50 (M14 melanoma) of 1540 nM. The TGI (M14 melanoma) was 4330 nM, the GI50 (MALME-3M melanoma) was 1540 nM and the TGI (MALME-3M melanoma) was 5300 nM. The GI50 (MCF7 breast) was 1610 nM, the TGI (MCF7 breast) was 7080 nM and the GI50 (MDA-MB-231 breast) was 1900 nM. The TGI (MDA-MB-231 breast) was 6130 nM, the GI50 (MDA-MB-435) was 1660 nM and the TGI (MDA-MB-435) was 6450 nM. The GI50 (MOLT-4 leukemia) was 2050 nM, the TGI (MOLT-4 leukemia) was 6120 nM and the GI50 (NCI-H226 lung) was 1530 nM. It also gave a TGI (NCI-H226 lung) of 4840 nM, a GI50 (NCI-H23 lung) of 1080 nM and a TGI (NCI-H23 lung) of 4200 nM. The GI50 (NCI-H460 lung) was 776 nM, the TGI (NCI-H460 lung) was 8030 nM and the GI50 (NCI-H522 lung) was 390 nM. The TGI (NCI-H522 lung) was 2550 nM, the GI50 (NCI/ADR-RES ovarian) was 1840 nM and the TGI (NCI/ADR-RES ovarian) was 9170 nM. It also gave a GI50 (OVCAR-4 ovarian) of 2550 nM, a TGI (OVCAR-4 ovarian) greater than 100000 nM and a GI50 (OVCAR-5 ovarian) of 3510 nM. It also gave a TGI (OVCAR-5 ovarian) of 19000 nM, a GI50 (OVCAR-8 ovarian) of 1220 nM and a TGI (OVCAR-8 ovarian) of 6520 nM. It also gave a GI50 (PC-3 prostate) of 653 nM, a TGI (PC-3 prostate) of 4140 nM and a GI50 (RPMI-8226 leukemia) of 319 nM. It also gave a TGI (RPMI-8226 leukemia) of 1520 nM, a GI50 (RXF 393 renal) of 1120 nM and a TGI (RXF 393 renal) of 3110 nM. It also gave a GI50 (SF-268 CNS) of 1910 nM, a TGI (SF-268 CNS) of 10900 nM and a GI50 (SF-295 CNS) of 1760 nM. It also gave a TGI (SF-295 CNS) of 3760 nM, a GI50 (SF-539 CNS) of 1730 nM and a TGI (SF-539 CNS) of 8230 nM. It also gave a GI50 (SK-MEL-2 melanoma) of 449 nM, a TGI (SK-MEL-2 melanoma) of 2070 nM and a GI50 (SK-MEL-28 melanoma) of 1450 nM. It also gave a TGI (SK-MEL-28 melanoma) of 6650 nM, a GI50 (SK-MEL-5 melanoma) of 338 nM and a TGI (SK-MEL-5 melanoma) of 1240 nM. The GI50 (SK-OV-3 ovarian) was 1290 nM, the TGI (SK-OV-3 ovarian) was 3390 nM and the GI50 (SN12C renal) was 991 nM. The TGI (SN12C renal) was 5360 nM, the GI50 (SNB-19 CNS) was 1070 nM and the TGI (SNB-19 CNS) was 13300 nM. The GI50 (SNB-75 CNS) was 1670 nM, the TGI (SNB-75 CNS) was 6370 nM and the GI50 (SR leukemia) was 1210 nM. The TGI (SR leukemia) was 5940 nM, the GI50 (SW-620 colon) was 1620 nM and the TGI (SW-620 colon) was 4410 nM. The GI50 (T-47D breast) was 1690 nM, the TGI (T-47D breast) was 7020 nM and the GI50 (TK-10 renal) was 4070 nM. It also gave a TGI (TK-10 renal) of 8740 nM, a GI50 (U251 CNS) of 1510 nM and a TGI (U251 CNS) of 9920 nM. For the same compound, the GI50 (UACC-257 melanoma) was 1050 nM, the TGI (UACC-257 melanoma) was 3970 nM and the GI50 (UACC-62 melanoma) was 296 nM. For the same compound, the TGI (UACC-62 melanoma) was 1140 nM, the GI50 (UO-31 renal) was 2270 nM and the TGI (UO-31 renal) was 8800 nM.
